PMC10620772, “Design, synthesis, and biological evaluation of new pyrimidine-5-carbonitrile derivatives as novel anti-cancer, dual EGFR^WT/COX-2 inhibitors with docking studies” (RSC Advances, 2023)

Legend:
Assay in all cases: NCI60 antitumor screening
Assay type in all cases: cell-based, human
[1] = system: LOX IMVI
[2] = system: TK-10
[3] = system: PC-3
[4] = system: RXF 393
[5] = system: OVCAR-3
[6] = system: NCI/ADR-RES
[7] = system: SN12C
[8] = system: A498
[9] = system: U251
[10] = system: NCI-H23
[11] = system: EKVX
[12] = system: HCC-2998
[13] = system: T-47D
[14] = system: NCI-H522
[15] = system: SNB-75; settings: Homo sapiens; 10 μM single dose; SNB-75 (CNS cancer); read-out: growth inhibition percent (GI%)
[16] = system: UO-31; settings: Homo sapiens; 10 μM single dose; UO-31 (renal cancer); read-out: growth inhibition percent (GI%)
[17] = system: HCT-116
[18] = system: CCRF-CEM; settings: Homo sapiens, CCRF-CEM, five-dose

With `N#Cc1c(-c2ccc(F)cc2)nc(SCc2ccccc2)nc1N1CCNCC1` [4e, 2-(Benzylthio)-4-(4-fluorophenyl)-6-(piperazin-1-yl) pyrimidine-5-carbonitrile] as the compound, how does the GI50 ([1]; Homo sapiens, LOX IMVI, five-dose) read?
Its GI50 is 1.71 µM.

And the CC50 ([1]; Homo sapiens, LOX IMVI, five-dose, read-out: LC50 (the source's name))?
Its CC50 is 6.48 µM.

And the inhibition at 10 µM ([1]; Homo sapiens, 10 μM single dose, LOX IMVI (melanoma), read-out: growth inhibition percent (GI%))?
Its inhibition at 10 µM is over 100%.

And the TGI ([1]; five-dose)?
Its TGI is 3.33 µM.

And the GI50 ([2]; Homo sapiens, TK-10, five-dose)?
The GI50 was 14.5 µM.

And the LC50 ([2]; Homo sapiens, TK-10, five-dose)?
Its LC50 is 55.5 µM.

And the inhibition at 10 µM ([2]; Homo sapiens, 10 μM single dose, TK-10 (renal cancer), read-out: growth inhibition percent (GI%))?
Its inhibition at 10 µM is over 100%.

And the TGI ([2]; five-dose)?
Its TGI is 28.40 µM.

What about the GI50 ([3]; Homo sapiens, PC-3, five-dose) of the same compound?
The GI50 was 11.8 µM.

What about the CC50 ([3]; Homo sapiens, PC-3, five-dose, read-out: LC50 (the source's name)) of the same compound?
The CC50 was 56.4 µM.

What about the inhibition at 10 µM ([3]; Homo sapiens, 10 μM single dose, PC-3 (prostate cancer), read-out: growth inhibition percent (GI%)) of the same compound?
The inhibition at 10 µM was over 100%.

What about the TGI ([3]; five-dose) of the same compound?
The TGI was 25.80 µM.

And the GI50 ([4]; Homo sapiens, RXF 393, five-dose)?
Its GI50 is 3.14 µM.

What about the CC50 ([4]; Homo sapiens, RXF 393, five-dose, read-out: LC50 (the source's name)) of the same compound?
The CC50 was 44.2 µM.

And the inhibition at 10 µM ([4]; Homo sapiens, 10 μM single dose, RXF 393 (renal cancer), read-out: growth inhibition percent (GI%))?
Its inhibition at 10 µM is over 100%.

And the TGI ([4]; five-dose)?
Its TGI is 14.80 µM.

And the GI50 ([5]; Homo sapiens, OVCAR-3, five-dose)?
The GI50 was 14.3 µM.

And the CC50 ([5]; Homo sapiens, OVCAR-3, five-dose, read-out: LC50 (the source's name))?
The CC50 was 59.1 µM.

And the inhibition at 10 µM ([5]; Homo sapiens, 10 μM single dose, OVCAR-3 (ovarian cancer), read-out: growth inhibition percent (GI%))?
Its inhibition at 10 µM is over 100%.

And the TGI ([5]; five-dose)?
Its TGI is 29.10 µM.

And the GI50 ([6]; Homo sapiens, NCI/ADR-RES, five-dose)?
The GI50 was 11.7 µM.

What about the CC50 ([6]; Homo sapiens, NCI/ADR-RES, five-dose, read-out: LC50 (the source's name)) of the same compound?
The CC50 was 64.4 µM.

And the inhibition at 10 µM ([6]; Homo sapiens, 10 μM single dose, NCI/ADR-RES (ovarian cancer), read-out: growth inhibition percent (GI%))?
The inhibition at 10 µM was over 100%.

And the TGI ([6]; five-dose)?
The TGI was 27.40 µM.

What about the GI50 ([7]; Homo sapiens, SN12C, five-dose) of the same compound?
The GI50 was 13.8 µM.

What about the CC50 ([7]; Homo sapiens, SN12C, five-dose, read-out: LC50 (the source's name)) of the same compound?
Its CC50 is 53.8 µM.

What about the inhibition at 10 µM ([7]; Homo sapiens, 10 μM single dose, SN12C (renal cancer), read-out: growth inhibition percent (GI%)) of the same compound?
The inhibition at 10 µM was over 100%.

And the TGI ([7]; five-dose)?
Its TGI is 27.20 µM.

And the GI50 ([8]; Homo sapiens, A498, five-dose)?
Its GI50 is 13.1 µM.

And the LC50 ([8]; Homo sapiens, A498, five-dose)?
Its LC50 is 56.9 µM.

And the inhibition at 10 µM ([8]; Homo sapiens, 10 μM single dose, A498 (renal cancer), read-out: growth inhibition percent (GI%))?
Its inhibition at 10 µM is over 100%.

And the TGI ([8]; five-dose)?
The TGI was 27.30 µM.

And the inhibition at 10 µM ([9]; Homo sapiens, U-251, 10 μM single dose, U251 (CNS cancer), read-out: growth inhibition percent (GI%))?
The inhibition at 10 µM was over 100%.

What about the GI50 ([9]; Homo sapiens, U-251, five-dose) of the same compound?
The GI50 was 4.36 µM.

And the CC50 ([9]; Homo sapiens, U-251, five-dose, read-out: LC50 (the source's name))?
The CC50 was 44.6 µM.

What about the TGI ([9]; five-dose) of the same compound?
The TGI was 16.10 µM.

What about the GI50 ([10]; Homo sapiens, NCI-H23, five-dose) of the same compound?
Its GI50 is 15.1 µM.

And the CC50 ([10]; Homo sapiens, NCI-H23, five-dose, read-out: LC50 (the source's name))?
Its CC50 is 56.5 µM.

And the inhibition at 10 µM ([10]; Homo sapiens, 10 μM single dose, NCI-H23 (non-small cell lung cancer), read-out: growth inhibition percent (GI%))?
The inhibition at 10 µM was over 100%.

What about the TGI ([10]; five-dose) of the same compound?
Its TGI is 29.30 µM.

And the GI50 ([11]; Homo sapiens, EKVX, five-dose)?
Its GI50 is 12 µM.

And the LC50 ([11]; Homo sapiens, EKVX, five-dose)?
Its LC50 is 51 µM.

What about the inhibition at 10 µM ([11]; Homo sapiens, 10 μM single dose, EKVX (non-small cell lung cancer), read-out: growth inhibition percent (GI%)) of the same compound?
Its inhibition at 10 µM is over 100%.

What about the TGI ([11]; five-dose) of the same compound?
Its TGI is 24.80 µM.

And the GI50 ([12]; Homo sapiens, HCC 2998, five-dose)?
Its GI50 is 1.76 µM.

And the CC50 ([12]; Homo sapiens, HCC 2998, five-dose, read-out: LC50 (the source's name))?
The CC50 was 5.89 µM.

And the inhibition at 10 µM ([12]; Homo sapiens, 10 μM single dose, HCC-2998 (colon cancer), read-out: growth inhibition percent (GI%))?
The inhibition at 10 µM was over 100%.

And the TGI ([12]; five-dose)?
Its TGI is 3.22 µM.

What about the inhibition at 10 µM ([13]; Homo sapiens, T47D, 10 μM single dose, T-47D (breast cancer), read-out: growth inhibition percent (GI%)) of the same compound?
Its inhibition at 10 µM is over 100%.

What about the GI50 ([13]; Homo sapiens, T47D, five-dose) of the same compound?
The GI50 was 10.1 µM.

What about the CC50 ([13]; Homo sapiens, T47D, five-dose, read-out: LC50 (the source's name)) of the same compound?
The CC50 was 61 µM.

What about the TGI ([13]; five-dose) of the same compound?
Its TGI is 24.80 µM.

And the GI50 ([14]; Homo sapiens, NCI-H522, five-dose)?
Its GI50 is 11.3 µM.

What about the CC50 ([14]; Homo sapiens, NCI-H522, five-dose, read-out: LC50 (the source's name)) of the same compound?
Its CC50 is 55.8 µM.

What about the inhibition at 10 µM ([14]; Homo sapiens, 10 μM single dose, NCI-H522 (non-small cell lung cancer), read-out: growth inhibition percent (GI%)) of the same compound?
The inhibition at 10 µM was over 100%.

What about the TGI ([14]; five-dose) of the same compound?
Its TGI is 25.10 µM.

And the inhibition at 10 µM [15]?
The inhibition at 10 µM was over 100%.

And the inhibition at 10 µM [16]?
The inhibition at 10 µM was over 100%.

What about the GI50 ([17]; Homo sapiens, HCT-116, five-dose) of the same compound?
Its GI50 is 3.51 µM.

What about the CC50 ([17]; Homo sapiens, HCT-116, five-dose, read-out: LC50 (the source's name)) of the same compound?
The CC50 was 38.1 µM.

And the inhibition at 10 µM ([17]; Homo sapiens, 10 μM single dose, HCT-116 (colon cancer), read-out: growth inhibition percent (GI%))?
The inhibition at 10 µM was over 100%.

What about the TGI ([17]; five-dose) of the same compound?
Its TGI is 11.60 µM.

What about the GI50 [18] of the same compound?
Its GI50 is 13.9 µM.

And the CC50 ([18]; read-out: LC50 (the source's name))?
The CC50 was 69 µM.
